Among the data in patent US20250215029A1 (Recludix Pharma, Inc., priority 2022, published 2025) are IC50 values, retold here.

The structures appear in SMILES notation.

For one experiment, the target named is T1, pY705-STAT3 in PBMC (Homo sapiens, UniProt P40763).
T1 construct: Cryopreserved Peripheral Blood Mononuclear Cells (PBMC) are from AllCells; host or cells: cryopreserved PBMC
T1 sequence (P40763 whole entry): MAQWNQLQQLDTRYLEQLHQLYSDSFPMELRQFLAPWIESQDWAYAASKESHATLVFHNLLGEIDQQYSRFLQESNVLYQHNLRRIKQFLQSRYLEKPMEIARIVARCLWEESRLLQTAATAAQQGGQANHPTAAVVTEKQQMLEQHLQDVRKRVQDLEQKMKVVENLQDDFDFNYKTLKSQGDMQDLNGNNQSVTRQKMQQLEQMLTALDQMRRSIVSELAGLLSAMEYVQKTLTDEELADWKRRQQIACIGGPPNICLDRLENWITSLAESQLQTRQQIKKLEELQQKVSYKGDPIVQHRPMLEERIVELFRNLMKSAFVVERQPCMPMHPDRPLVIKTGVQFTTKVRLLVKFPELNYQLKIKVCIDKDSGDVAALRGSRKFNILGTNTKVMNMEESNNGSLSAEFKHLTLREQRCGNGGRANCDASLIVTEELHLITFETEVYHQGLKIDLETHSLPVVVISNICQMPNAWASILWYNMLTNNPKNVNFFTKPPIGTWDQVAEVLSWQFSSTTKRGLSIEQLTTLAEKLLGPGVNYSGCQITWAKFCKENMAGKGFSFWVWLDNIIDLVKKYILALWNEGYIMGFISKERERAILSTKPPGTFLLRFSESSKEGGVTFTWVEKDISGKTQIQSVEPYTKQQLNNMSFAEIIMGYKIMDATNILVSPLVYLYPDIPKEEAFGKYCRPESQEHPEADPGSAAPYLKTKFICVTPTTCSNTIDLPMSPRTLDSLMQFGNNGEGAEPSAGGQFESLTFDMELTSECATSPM
Briefly: MSD-pSTAT-PBMC Assay (pSTAT3, IL-6 stimulated). The experiment is classed as cell-based. Conditions: PBMC, compound 3 hrs, then 10 ng/mL IL-6 for 10 min; Table 115; read-out: STAT3. An outline of the steps:
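PBMC (human, cryopreserved, overnight recovery) + cpd 3 hrs → IL-6 10 ng/mL (STAT3) or IL-4 1 ng/mL (STAT6) ×10 min → lysis with protease/phosphatase inhibitors → MSD capture/phospho detection. IC50, variable slope, DMSO-normalized.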
As to `CCCOC(=O)[C@H](C)NP(=O)(Oc1ccccc1)C(F)c1ccc2sc(C(=O)N[C@H]3CCC[C@H]4CC[C@@H](C(=O)N5CC(c6cn(C)ccc6=O)C5)N4C3=O)cc2c1` (stereo partly drawn) [Compound 985, propyl ((fluoro(2-(((3S,6S,9aS)-3-(3-(1-methyl-4-oxo-1,4-dihydropyridin-3-yl)azetidine-1-carbonyl)-5-oxooctahydro-1H-pyrrolo[1,2-a]azepin-6-yl)carbamoyl)benzo [b]thiophen-5-yl)methyl)(phenoxy)phosphoryl)-L-alaninate], the IC50 is greater than 3000 nM.

Consider `CCCOC(=O)[C@H](C)NP(=O)(Oc1ccccc1)C(F)c1ccc2sc(C(=O)N[C@H]3CCC[C@H]4CC[C@@H](C(=O)N5CC(c6cc(F)ccc6F)C5)N4C3=O)cc2c1` (stereo partly drawn) [Compound 986, propyl (((2-(((3S,6S,9aS)-3-(3-(2,5-difluorophenyl)azetidine-1-carbonyl)-5-oxooctahydro-1H-pyrrolo[1,2-a]azepin-6-yl)carbamoyl)benzo [b]thiophen-5-yl)fluoromethyl) (phenoxy)phosphoryl)-L-alaninate], for which the IC50 is 1000 to 3000 nM.

In the case of `CCCOC(=O)[C@H](C)NP(=O)(Oc1ccccc1)C(F)c1ccc2sc(C(=O)N[C@H]3CCCC[C@H]4CC[C@@H](C(=O)N5CC(NCCOC)(c6ccccn6)C5)N4C3=O)cc2c1` (stereo partly drawn) [Compound 987, propyl ((fluoro(2-(((3S,6S,10aS)-3-(3-((2-methoxyethyl)amino)-3-(pyridin-2-yl)azetidine-1-carbonyl)-5-oxodecahydropyrrolo [1,2-a]azocin-6-yl)carbamoyl)benzo [b]thiophen-5-yl)methyl)(phenoxy)phosphoryl)-L-alaninate], the IC50 is 100 to 1000 nM.

As to `CCCOC(=O)[C@H](C)NP(=O)(Cc1ccc2sc(C(=O)N[C@H]3CC[C@@H](C)C[C@H]4CC[C@@H](C(=O)N5CC(c6cnccc6F)C5)N4C3=O)cc2c1)Oc1ccccc1` (stereo partly drawn) [Compound 988, propyl (((2-(((3S,6S,9R,10aR)-3-(3-(4-fluoropyridin-3-yl)azetidine-1-carbonyl)-9-methyl-5-oxodecahydropyrrolo [1,2-a]azocin-6-yl)carbamoyl)benzo [b]thiophen-5-yl)methyl)(phenoxy)phosphoryl)-L-alaninate], the IC50 is less than 100 nM.

Consider `CCCOC(=O)[C@H](C)NP(=O)(Cc1ccc2sc(C(=O)N[C@H]3CCC[C@H]4CC[C@@H](C(=O)N5CC(c6c(OC)ccnc6C(F)F)C5)N4C3=O)cc2c1)Oc1ccccc1` (stereo partly drawn) [Compound 990, propyl (((2-(((3S,6S, 9aS)-3-(3-(2-(difluoromethyl)-4-methoxypyridin-3-yl)azetidine-1-carbonyl)-5-oxooctahydro-1H-pyrrolo[1,2-a]azepin-6-yl)carbamoyl)benzo [b]thiophen-5-yl)methyl)(phenoxy)phosphoryl)-L-alaninate], for which the IC50 was greater than 3000 nM.

Consider `CCCOC(=O)[C@H](C)NP(=O)(Cc1ccc2sc(C(=O)N[C@H]3CC[C@H](C)C[C@H]4CC[C@@H](C(=O)N5CC(c6cnccc6F)C5)N4C3=O)cc2c1)Oc1ccccc1` (stereo partly drawn) [Compound 993, propyl (((2-(((3S,6S,9S,10aR)-3-(3-(4-fluoropyridin-3-yl)azetidine-1-carbonyl)-9-methyl-5-oxodecahydropyrrolo [1,2-a]azocin-6-yl)carbamoyl)benzo [b]thiophen-5-yl)methyl)(phenoxy)phosphoryl)-L-alaninate], for which the IC50 is less than 100 nM.

As for `CCCOC(=O)[C@H](C)NP(=O)(Oc1ccccc1)[C@@H](F)c1ccc2sc(C(=O)N[C@H]3CCC[C@H]4CC[C@@H](C(=O)N5CC(c6cnccc6F)C5)N4C3=O)cc2c1` (stereo partly drawn) [Compound 994, propyl (((R)-fluoro(2-(((3S,6S,9aS)-3-(3-(4-fluoropyridin-3-yl)azetidine-1-carbonyl)-5-oxooctahydro-1H-pyrrolo[1,2-a]azepin-6-yl)carbamoyl)benzo [b]thiophen-5-yl)methyl)(phenoxy)phosphoryl)-L-alaninate], the IC50 lay in the range of 100 to 1000 nM.

In the case of `CCCOC(=O)[C@H](C)NP(=O)(Oc1ccccc1)C(F)c1ccc2sc(C(=O)N[C@H]3CCCC[C@H]4CC[C@@H](C(=O)N5CC(OCCOC)(c6cccnc6)C5)N4C3=O)cc2c1` (stereo partly drawn) [Compound 995, propyl ((fluoro(2-(((3S,6S,10aS)-3-(3-(2-methoxyethoxy)-3-(pyridin-3-yl)azetidine-1-carbonyl)-5-oxodecahydropyrrolo [1,2-a]azocin-6-yl)carbamoyl)benzo [b]thiophen-5-yl)methyl)(phenoxy)phosphoryl)-L-alaninate], the IC50 is less than 100 nM.

As for `CCCOC(=O)[C@H](C)NP(=O)(Cc1ccc2sc(C(=O)N[C@H]3CCC[C@H]4CC[C@@H](C(=O)N5CC(c6cnccc6OC(F)F)C5)N4C3=O)cc2c1)Oc1ccccc1` (stereo partly drawn) [Compound 996, propyl (((2-(((3S,6S,9aS)-3-(3-(4-(difluoromethoxy)pyridin-3-yl)azetidine-1-carbonyl)-5-oxooctahydro-1H-pyrrolo[1,2-a]azepin-6-yl)carbamoyl)benzo [b]thiophen-5-yl)methyl)(phenoxy) )phosphoryl)-L-alaninate], the IC50 is 100 to 1000 nM.

Take `CC(C)(C)C(=O)SCCOP(=O)(OCCSC(=O)C(C)(C)C)C(F)(F)c1ccc2sc(C(=O)N[C@H]3CCC[C@H]4CC[C@@H](C(=O)NCc5cnc6[nH]cnc6c5)N4C3=O)cc2c1` [Compound 1002, S,S′-(((((2-(((3S,6S,9aS)-3-(((3H-imidazo[4,5-b]pyridin-6-yl)methyl)carbamoyl)-5-oxooctahydro-1H-pyrrolo[1,2-a]azepin-6-yl)carbamoyl)benzo [b]thiophen-5-yl)difluoromethyl)phosphoryl)bis(oxy))bis(ethane-2,1-diyl)) bis(2,2-dimethyl-propanethioate)]: the IC50 was less than 100 nM.

Regarding `CCCCOC(=O)[C@@H]1CCCN1P(=O)(Cc1ccc2sc(C(=O)N[C@H]3CCC[C@H]4CC[C@@H](C(=O)N5CC(c6cccnc6)C5)N4C3=O)cc2c1)Oc1ccccc1` (stereo partly drawn) [Compound 1003, butyl (((2-(((3S,6S,9aS)-5-oxo-3-(3-(pyridin-3-yl)azetidine-1-carbonyl)octahydro-1H-pyrrolo[1,2-a]azepin-6-yl)carbamoyl)benzo [b]thiophen-5-yl)methyl)(phenoxy)phosphoryl)-L-prolinate], the IC50 was 1000 to 3000 nM.

Consider `CC(C)(C)C(=O)SCCOP(=O)(OCCSC(=O)C(C)(C)C)C(F)(F)c1ccc2sc(C(=O)N[C@H]3CCCC[C@H]4CC[C@@H](C(=O)NCc5cnc6[nH]cnc6c5)N4C3=O)cc2c1` [Compound 1005, S,S′-(((((2-(((3S,6S,10aS)-3-(((3H-imidazo[4,5-b]pyridin-6-yl)methyl)carbamoyl)-5-oxodecahydropyrrolo [1,2-a]azocin-6-yl)carbamoyl)benzo [b]thiophen-5-yl)difluoromethyl)phosphoryl)bis(oxy))bis(ethane-2,1-diyl)) bis(2,2-dimethyl-propanethioate)], for which the IC50 is less than 100 nM.

On to `O=C(Cc1ccccc1)SCCOP(=O)(OCCSC(=O)Cc1ccccc1)C(F)(F)c1ccc2sc(C(=O)N[C@H]3CCC[C@H]4CC[C@@H](C(=O)N5CC(c6cccnc6)C5)N4C3=O)cc2c1` [Compound 1006, S,S′-((((difluoro(2-(((3S,6S,9aS)-5-oxo-3-(3-(pyridin-3-yl)azetidine-1-carbonyl)octahydro-1H-pyrrolo[1,2-a]azepin-6-yl)carbamoyl)benzo [b]thiophen-5-yl)methyl)phosphoryl)bis(oxy))bis(ethane-2,1-diyl)) bis(2-phenylethanethioate)], for which the IC50 is less than 100 nM.

Turning to `CN=S(C)(=O)CC1(OC)CN(C(=O)C2CCC3CCCC(NC(=O)c4cc5cc(C(F)(F)P(=O)(OCCSC(=O)C(C)(C)C)OCCSC(=O)C(C)(C)C)ccc5s4)C(=O)N32)C1` [Compound 1015, S,S′-(((((2-(((3S,6S,9aS)-3-(3-((N,S-dimethyl-sulfonimidoyl)methyl)-3-methoxyazetidine-1-carbonyl)-5-oxooctahydro-1H-pyrrolo[1,2-a]azepin-6-yl)carbamoyl)benzo [b]thiophen-5-yl)difluoromethyl)phosphoryl)bis(oxy))bis(ethane-2,1-diyl)) bis(2,2-dimethyl-propanethioate)], the IC50 is less than 100 nM.

On to `CC[C@@H](C)OC(=O)[C@H](C)NP(=O)(Cc1ccc2sc(C(=O)N[C@H]3CCC[C@H]4CC[C@@H](C(=O)N5CC(c6cccnc6)C5)N4C3=O)cc2c1)Oc1ccccc1` (stereo partly drawn) [Compound 1016, (R)-sec-butyl (((2-(((3S,6S,9aS)-5-oxo-3-(3-(pyridin-3-yl)azetidine-1-carbonyl)octahydro-1H-pyrrolo[1,2-a]azepin-6-yl)carbamoyl)benzo [b]thiophen-5-yl)methyl)(phenoxy)phosphoryl)-L-alaninate], for which the IC50 lay within 100 to 1000 nM.

The experiment is the same for the next values; noted with them: STAT3, PBMC, compound 3 hrs, then 10 ng/mL IL-6 for 10 min; Table 115.
Take `CCCOC(=O)[C@H](C)NP(=O)(Cc1ccc2sc(C(=O)N[C@H]3CCC[C@H]4CC[C@@H](C(=O)N5CC(c6cnc(C(F)F)cc6OC)C5)N4C3=O)cc2c1)Oc1ccccc1` (stereo partly drawn) [Compound 991, propyl (((2-(((3S,6S,9aS)-3-(3-(6-(difluoromethyl)-4-methoxypyridin-3-yl)azetidine-1-carbonyl)-5-oxooctahydro-1H-pyrrolo[1,2-a]azepin-6-yl)carbamoyl)benzo [b]thiophen-5-yl)methyl)(phenoxy)phosphoryl)-L-alaninate]: the IC50 is greater than 3000 nM.

`CCCCOC(=O)[C@H](C)NP(=O)(Cc1ccc2sc(C(=O)N[C@H]3CCC[C@H]4CC[C@@H](C(=O)N5CC(c6cccnc6)C5)N4C3=O)cc2c1)Oc1cccc2ccccc12` (stereo partly drawn) [Compound 1004, butyl ((naphthalen-1-yloxy)((2-(((3S,6S,9aS)-5-oxo-3-(3-(pyridin-3-yl)azetidine-1-carbonyl)octahydro-1H-pyrrolo[1,2-a]azepin-6-yl)carbamoyl)benzo [b]thiophen-5-yl)methyl)phosphoryl)-L-alaninate] showed an IC50 of 100 to 1000 nM.
